# Reference: PubChem BioAssay (NCI)
#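 Protocol summary: plate cells (96-well), add compound at 5 concentrations, incubate 48 h, interpolate endpoints linearly. GI50 marks 50% less growth. Definition used: TGI = concentration required for complete inhibition of growth.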
# Experiments:
# Assay in all cases: DTP human tumour cell line panel, 48 h
# T-47D breast = system: T-47D breast
# A549 NSCLC = system: A549 NSCLC
# NCI-H226 lung = system: NCI-H226 lung
# UACC-62 melanoma = system: UACC-62 melanoma
# DU-145 prostate = system: DU-145 prostate
# HCC-2998 colon = system: HCC-2998 colon
# M14 melanoma = system: M14 melanoma
# RXF 393 renal = system: RXF 393 renal
# SR leukemia = system: SR leukemia
# SW-620 colon = system: SW-620 colon
# OVCAR-4 ovarian = system: OVCAR-4 ovarian
# HOP-92 NSCLC = system: HOP-92 NSCLC
# OVCAR-8 ovarian = system: OVCAR-8 ovarian
# MDA-MB-231 breast = system: MDA-MB-231 breast
# PC-3 prostate = system: PC-3 prostate
# IGROV1 ovarian = system: IGROV1 ovarian
# LOX IMVI melanoma = system: LOX IMVI melanoma
# RPMI-8226 leukemia = system: RPMI-8226 leukemia
# SN12C renal = system: SN12C renal
# HCT-116 colon = system: HCT-116 colon
# OVCAR-5 ovarian = system: OVCAR-5 ovarian
# SK-OV-3 ovarian = system: SK-OV-3 ovarian
# SF-268 CNS = system: SF-268 CNS
# 786-0 renal = system: 786-0 renal
# EKVX NSCLC = system: EKVX NSCLC
# UACC-257 melanoma = system: UACC-257 melanoma
# HL-60(TB) leukemia = system: HL-60(TB) leukemia
# HT29 colon = system: HT29 colon
# SK-MEL-2 melanoma = system: SK-MEL-2 melanoma
# SNB-19 CNS = system: SNB-19 CNS
# NCI-H23 lung = system: NCI-H23 lung
# SK-MEL-5 melanoma = system: SK-MEL-5 melanoma
# BT-549 breast = system: BT-549 breast
# HS 578T breast = system: HS 578T breast
# CAKI-1 renal = system: CAKI-1 renal
# MDA-MB-435 = system: MDA-MB-435
# ACHN renal = system: ACHN renal
# K-562 leukemia = system: K-562 leukemia
# SF-295 CNS = system: SF-295 CNS
# SF-539 CNS = system: SF-539 CNS
# MOLT-4 leukemia = system: MOLT-4 leukemia
# OVCAR-3 ovarian = system: OVCAR-3 ovarian
# COLO 205 colon = system: COLO 205 colon
# A498 renal = system: A498 renal
# NCI-H522 lung = system: NCI-H522 lung
# CCRF-CEM leukemia = system: CCRF-CEM leukemia
# U251 CNS = system: U251 CNS
# HOP-62 NSCLC = system: HOP-62 NSCLC
# NCI/ADR-RES ovarian = system: NCI/ADR-RES ovarian
# MCF7 breast = system: MCF7 breast
# HCT-15 colon = system: HCT-15 colon
# SK-MEL-28 melanoma = system: SK-MEL-28 melanoma
# TK-10 renal = system: TK-10 renal
# SNB-75 CNS = system: SNB-75 CNS
# NCI-H460 lung = system: NCI-H460 lung
# KM12 colon = system: KM12 colon
# MALME-3M melanoma = system: MALME-3M melanoma
# UO-31 renal = system: UO-31 renal
smiles,measurement,setting,value
C=CCNCCN1C(=O)c2ccc3c4c(ccc(c24)C1=O)C(=O)N(CCNCC=C)C3=O,GI50,T-47D breast,1200 nM
same,TGI,T-47D breast,2650 nM
same,GI50,A549 NSCLC,418 nM
same,TGI,A549 NSCLC,1670 nM
same,GI50,NCI-H226 lung,493 nM
same,TGI,NCI-H226 lung,1460 nM
same,GI50,UACC-62 melanoma,895 nM
same,TGI,UACC-62 melanoma,1680 nM
same,GI50,DU-145 prostate,663 nM
same,TGI,DU-145 prostate,1360 nM
same,GI50,HCC-2998 colon,766 nM
same,TGI,HCC-2998 colon,1550 nM
same,GI50,M14 melanoma,918 nM
same,TGI,M14 melanoma,1800 nM
same,GI50,RXF 393 renal,696 nM
same,TGI,RXF 393 renal,1480 nM
same,GI50,SR leukemia,811 nM
same,TGI,SR leukemia,2920 nM
same,GI50,SW-620 colon,402 nM
same,TGI,SW-620 colon,1630 nM
same,GI50,OVCAR-4 ovarian,315 nM
same,TGI,OVCAR-4 ovarian,1000 nM
same,GI50,HOP-92 NSCLC,1810 nM
same,TGI,HOP-92 NSCLC,5560 nM
same,GI50,OVCAR-8 ovarian,421 nM
same,TGI,OVCAR-8 ovarian,4000 nM
same,GI50,MDA-MB-231 breast,1260 nM
same,TGI,MDA-MB-231 breast,4710 nM
same,GI50,PC-3 prostate,1340 nM
same,TGI,PC-3 prostate,16600 nM
same,GI50,IGROV1 ovarian,504 nM
same,TGI,IGROV1 ovarian,1670 nM
same,GI50,LOX IMVI melanoma,728 nM
same,TGI,LOX IMVI melanoma,1770 nM
same,GI50,RPMI-8226 leukemia,953 nM
same,TGI,RPMI-8226 leukemia,4230 nM
same,GI50,SN12C renal,489 nM
same,TGI,SN12C renal,1260 nM
same,GI50,HCT-116 colon,500 nM
same,TGI,HCT-116 colon,50000 nM
same,GI50,OVCAR-5 ovarian,1040 nM
same,TGI,OVCAR-5 ovarian,3090 nM
same,GI50,SK-OV-3 ovarian,1050 nM
same,TGI,SK-OV-3 ovarian,2800 nM
same,GI50,SF-268 CNS,753 nM
same,TGI,SF-268 CNS,3540 nM
same,GI50,786-0 renal,1110 nM
same,TGI,786-0 renal,2800 nM
same,GI50,EKVX NSCLC,557 nM
same,TGI,EKVX NSCLC,1510 nM
same,GI50,UACC-257 melanoma,786 nM
same,TGI,UACC-257 melanoma,1490 nM
same,GI50,HL-60(TB) leukemia,860 nM
same,TGI,HL-60(TB) leukemia,2210 nM
same,GI50,HT29 colon,193 nM
same,TGI,HT29 colon,769 nM
same,GI50,SK-MEL-2 melanoma,891 nM
same,TGI,SK-MEL-2 melanoma,1740 nM
same,GI50,SNB-19 CNS,650 nM
same,TGI,SNB-19 CNS,1350 nM
same,GI50,NCI-H23 lung,938 nM
same,TGI,NCI-H23 lung,2100 nM
same,GI50,SK-MEL-5 melanoma,584 nM
same,TGI,SK-MEL-5 melanoma,1200 nM
same,GI50,BT-549 breast,2910 nM
same,TGI,BT-549 breast,10200 nM
same,GI50,HS 578T breast,1760 nM
same,TGI,HS 578T breast,8710 nM
same,GI50,CAKI-1 renal,630 nM
same,TGI,CAKI-1 renal,1840 nM
same,GI50,MDA-MB-435,745 nM
same,TGI,MDA-MB-435,1700 nM
same,GI50,ACHN renal,407 nM
same,TGI,ACHN renal,2520 nM
same,GI50,K-562 leukemia,534 nM
same,TGI,K-562 leukemia,3240 nM
same,GI50,SF-295 CNS,397 nM
same,TGI,SF-295 CNS,1280 nM
same,GI50,SF-539 CNS,847 nM
same,TGI,SF-539 CNS,1960 nM
same,GI50,MOLT-4 leukemia,427 nM
same,TGI,MOLT-4 leukemia,1630 nM
same,GI50,OVCAR-3 ovarian,990 nM
same,TGI,OVCAR-3 ovarian,3270 nM
same,GI50,COLO 205 colon,160 nM
same,TGI,COLO 205 colon,407 nM
same,GI50,A498 renal,1140 nM
same,TGI,A498 renal,3570 nM
same,GI50,NCI-H522 lung,616 nM
same,TGI,NCI-H522 lung,1540 nM
same,GI50,CCRF-CEM leukemia,708 nM
same,TGI,CCRF-CEM leukemia,3440 nM
same,GI50,U251 CNS,526 nM
same,TGI,U251 CNS,1260 nM
same,GI50,HOP-62 NSCLC,712 nM
same,TGI,HOP-62 NSCLC,2700 nM
same,GI50,NCI/ADR-RES ovarian,995 nM
same,TGI,NCI/ADR-RES ovarian,5290 nM
same,GI50,MCF7 breast,225 nM
same,TGI,MCF7 breast,983 nM
same,GI50,HCT-15 colon,457 nM
same,TGI,HCT-15 colon,1660 nM
same,GI50,SK-MEL-28 melanoma,1180 nM
same,TGI,SK-MEL-28 melanoma,2680 nM
same,GI50,TK-10 renal,1110 nM
same,TGI,TK-10 renal,3430 nM
same,GI50,SNB-75 CNS,874 nM
same,TGI,SNB-75 CNS,1670 nM
same,GI50,NCI-H460 lung,258 nM
same,TGI,NCI-H460 lung,1730 nM
same,GI50,KM12 colon,590 nM
same,TGI,KM12 colon,1820 nM
same,GI50,MALME-3M melanoma,343 nM
same,TGI,MALME-3M melanoma,996 nM
same,GI50,UO-31 renal,716 nM
same,TGI,UO-31 renal,1690 nM
